“Also recorded” adds a separate entry of the source.
Legend:
E. coli DNA gyrase = biological target: T1, E. coli DNA gyrase (Escherichia coli, UniProt P0AES4+P0AES6); assay: DNA gyrase supercoiling assay (pBR322); assay type: biochemical; settings: at 12.5 μM (compounds); gel and densitometry
T1 construct: purchased Inspiralis
Experimental: DNA gyrase produces supercoiled DNA from relaxed and open-coiled DNA, which can be separated via agarose gel electrophoresis. […]
(§1) E. coli DNA gyrase supercoiling assay (Inspiralis) was performed according to the manufacturer’s instructions, ensuring a constant concentration of 1% (v/v) DMSO. Samples were separated on a 1% (w/v) agarose gel prepared with Tris/Borate/EDTA (TBE) buffer (1 M Tris-borate, 20 mM EDTA, pH 8.0). Electrophoresis was performed at 100 V until the bromophenol blue dye had run >6 cm to ensure resolution of relaxed and supercoiled DNA.
(§2) The gel was stained with SYBR Safe DNA gel stain (Invitrogen, 1:10,000 dilution in TBE) for 30 min, and visualized on a Syngene Gel Doc system. Band intensity was quantified using ImageJ software and the fraction of supercoiled plasmid was determined as the ratio of the density of the supercoiled band to the total density. Values were background corrected against the no-gyrase control and normalized to DMSO control for dose-response analysis.

E. coli topoisomerase IV = biological target: T2, E. coli topoisomerase IV (Escherichia coli, UniProt P0AFI2+P20083); assay: Topoisomerase IV supercoiling relaxation assay (pQE80L); assay type: biochemical; settings: at 12.5 µM (compounds)
T2 construct: purchased Inspiralis
T2 sequence (P0AFI2 whole entry): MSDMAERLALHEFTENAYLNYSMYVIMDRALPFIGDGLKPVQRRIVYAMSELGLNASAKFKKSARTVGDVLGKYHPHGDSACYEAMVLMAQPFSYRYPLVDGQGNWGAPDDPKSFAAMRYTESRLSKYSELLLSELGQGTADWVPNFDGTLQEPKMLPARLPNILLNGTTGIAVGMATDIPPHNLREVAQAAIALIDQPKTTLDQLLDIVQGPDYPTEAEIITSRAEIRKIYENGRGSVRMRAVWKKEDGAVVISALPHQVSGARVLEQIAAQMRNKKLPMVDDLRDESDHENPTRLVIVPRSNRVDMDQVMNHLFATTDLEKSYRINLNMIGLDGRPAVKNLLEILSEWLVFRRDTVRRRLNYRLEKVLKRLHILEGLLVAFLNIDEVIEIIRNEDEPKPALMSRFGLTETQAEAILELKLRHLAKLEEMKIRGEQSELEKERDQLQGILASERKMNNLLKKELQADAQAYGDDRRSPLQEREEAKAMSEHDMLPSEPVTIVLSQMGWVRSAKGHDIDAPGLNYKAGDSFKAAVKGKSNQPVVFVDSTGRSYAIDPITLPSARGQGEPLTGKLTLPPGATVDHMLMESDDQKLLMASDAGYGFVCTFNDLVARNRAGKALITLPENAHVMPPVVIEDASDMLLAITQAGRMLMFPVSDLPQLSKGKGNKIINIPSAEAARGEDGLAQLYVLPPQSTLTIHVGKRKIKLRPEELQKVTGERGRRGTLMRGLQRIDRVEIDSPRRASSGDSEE
T2 sequence (P20083 whole entry): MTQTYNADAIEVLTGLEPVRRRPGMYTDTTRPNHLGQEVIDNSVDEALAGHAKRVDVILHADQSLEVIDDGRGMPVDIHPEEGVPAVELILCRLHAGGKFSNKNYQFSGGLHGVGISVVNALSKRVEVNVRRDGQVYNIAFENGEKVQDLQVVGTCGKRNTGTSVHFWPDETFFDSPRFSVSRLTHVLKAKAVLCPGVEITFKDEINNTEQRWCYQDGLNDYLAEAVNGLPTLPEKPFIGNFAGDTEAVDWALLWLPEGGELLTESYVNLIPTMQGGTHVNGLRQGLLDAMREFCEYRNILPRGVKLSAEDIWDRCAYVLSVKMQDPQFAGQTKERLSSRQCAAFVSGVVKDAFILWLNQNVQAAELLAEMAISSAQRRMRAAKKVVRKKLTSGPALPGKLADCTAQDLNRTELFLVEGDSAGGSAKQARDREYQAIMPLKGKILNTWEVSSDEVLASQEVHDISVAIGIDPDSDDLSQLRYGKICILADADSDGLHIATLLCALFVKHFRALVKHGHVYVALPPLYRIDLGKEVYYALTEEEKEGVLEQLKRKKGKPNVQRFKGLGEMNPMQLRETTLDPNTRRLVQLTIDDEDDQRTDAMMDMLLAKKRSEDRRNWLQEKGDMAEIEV
Experimental: 2.1. Biological and biochemical methods […]
as §1, §2
E. coli topoisomerase IV supercoiling relaxation assay (Inspiralis) was performed according to the manufacturer’s instructions, ensuring a constant concentration of 1% (v/v) DMSO.
Supercoiled pQE80L was prepared via plasmid purification and used as the substrate for the reaction. Reactions were analyzed as described for DNA gyrase assays. […]

[1] = test system: SOS response in JE2 cells; assay: SOS reporter assay (GFP under control of the recA promoter); assay type: cell-based, Staphylococcus aureus; settings: for SOS response (normalized GFP fluorescence/cell): JE2 recA-GFP reporter, SOS activated with CFX (10 µM), titration of compound
Description: A SOS reporter system was generated by transformation of JE2 cells with a plasmid containing GFP under control of the recA promoter. Activation of the SOS response in these cells results in expression of GFP which can be monitored by fluorescence intensity. […] IMP-1700 (10) was coupled with N-Boc-ethylenediamine to afford amide 19, followed by removal of the Boc group in 4 M HCl/dioxane and purification using strong cation exchange resin. The resulting free amine 20 was coupled to N-hydroxysuccinimide (NHS)-activated Sepharose resin at 4 °C overnight (Figure 2C), and the remaining NHS sites quenched in Tris buffer. SoluBL21 competent E. coli were transformed with pET28b^+ containing StrepII-tagged AddA and hexahistidine-tagged AddB, and expression induced overnight at 16 °C. […] Beads were washed three times with lysis buffer and bound protein eluted with SDS-PAGE sample buffer, followed by PAGE separation. […]
JE2 transformed with SOS-inducible pCN34 PrecA-gfp reporter plasmid expressing GFP under the control of the recA promoter were grown to late stationary phase at 37 °C in MHB containing kanamycin (90 μg/mL). Stationary phase JE2 culture (1 mL) was centrifuged (17,000 × g, 2 min), the supernatant removed and cells resuspended in assay media (12.5 µM […]
concentration was maintained >12.5 µM and DMSO concentration maintained at 1.5% (v/v).
JE2 culture (20 uL) was added to inhibitor solutions (180 µL) to a final cell density of 4 x 10^7 CFU/mL and samples incubated in a M200-PRO microplate reader (Tecan) at 37 °C with 700 rpm agitation for 17 h. GFP fluorescence intensity and OD600 were measured at 15 min intervals. Measurements were background corrected against no-inocula control and normalized to no-test inhibitor control at mid-exponential growth phase (4.5 h) for dose-response analysis. […]

[2] = test system: AddAB (StrepII-AddA and His6-AddB); assay: Recombinant AddAB pulldown with compound-functionalized Sepharose; assay type: binding; settings: E. coli lysate co-expressing StrepII-AddA and His6-AddB, Western blot
Description: A SOS reporter system was generated by transformation of JE2 cells with a plasmid containing GFP under control of the recA promoter. Activation of the SOS response in these cells results in expression of GFP which can be monitored by fluorescence intensity. […] This decrease is indicative of inhibition of the SOS response during cell death, and consistent with the proposed inhibition of AddAB-mediated DNA repair pathways. Finally, to provide additional evidence that inhibition of the bacterial DNA repair pathway by IMP-1700 (10) occurred through inhibition of AddAB, a target pulldown was conducted. IMP-1700 (10) was coupled with N-Boc-ethylenediamine to afford amide 19, followed by removal of the Boc group in 4 M HCl/dioxane and purification using strong cation exchange resin. The resulting free amine 20 was coupled to N-hydroxysuccinimide (NHS)-activated Sepharose resin at 4 °C overnight (Figure 2C), and the remaining NHS sites quenched in Tris buffer. SoluBL21 competent E. coli were transformed with pET28b^+ containing StrepII-tagged AddA and hexahistidine-tagged AddB, and expression induced overnight at 16 °C. Cells were lysed via sonication and the total lysate incubated with IMP-1700 (10)-functionalized or control Sepharose beads which had been treated with DMSO then Tris-quenched. Beads were washed three times with lysis buffer and bound protein eluted with SDS-PAGE sample buffer, followed by PAGE separation. […]
agar (LA) supplemented with kanamycin (50 μg/mL). Liquid cultures were grown at 37 °C with shaking at 180 r.p.m until an OD600 of 0.5 was reached, at which point cultures were cooled to 16 °C. Protein expression was induced by addition of isopropyl β-D-thiogalactoside (1 mM), followed by incubation for 20 h at 16 °C with shaking. Cells were collected by centrifugation (4,000 × g, 5 min) and stored at -20 °C.
Cells were re-suspended in lysis buffer (50 mM Tris-HCl, 150 mM NaCl, pH 7.5) and lysed on ice by sonication (2 min, 5 s on-off cycle, 40% amplitude) using a Vibra-cell sonicator (Sonics). […]

[3] = test system: methicillin-resistant S. aureus (MRSA, USA300 JE2); assay: Ciprofloxacin (CFX) potentiation in MRSA growth inhibition assay; assay type: cell-based, Staphylococcus aureus; settings: compared to IMP-1700 (10)
Experimental: 2.1. Biological and biochemical methods
Bacterial strains and culture conditions
Strains utilized in the present study are detailed in Table S1. All strains used were cultivated on Mueller Hinton Agar (MHA) and grown to stationary-phase in Mueller Hinton Broth (MHB) at 37 °C for 16 h, with shaking at 180 r.p.m.
Minimum inhibitory concentration (MIC) assays
MIC assays were performed in 96 well plates and MICs were determined in accordance with the broth microdilution protocol.4 Strains grown to stationary-phase in MHB were adjusted to 5 x 10^5 colony-forming units (CFU)/mL in fresh MHB (100 µL/well) supplemented with DMSO to ensure a constant concentration of 0.5% (v/v) DMSO across all experiments. Where […]
or H2O2 (200 μM). Test compounds were prepared as two-fold serial dilutions. Cells were […]
as the lowest concentration with no visible bacterial growth, and the optical density at 600 nm (OD600) was recorded. OD600 measurements were background corrected against no-inocula control and normalized to DMSO control for dose-response analysis. The EC50 value mean and SEM were calculated from individual EC50 values from three biological replicates. […]

T1 sequence (P0AES4 whole entry, one chain of several): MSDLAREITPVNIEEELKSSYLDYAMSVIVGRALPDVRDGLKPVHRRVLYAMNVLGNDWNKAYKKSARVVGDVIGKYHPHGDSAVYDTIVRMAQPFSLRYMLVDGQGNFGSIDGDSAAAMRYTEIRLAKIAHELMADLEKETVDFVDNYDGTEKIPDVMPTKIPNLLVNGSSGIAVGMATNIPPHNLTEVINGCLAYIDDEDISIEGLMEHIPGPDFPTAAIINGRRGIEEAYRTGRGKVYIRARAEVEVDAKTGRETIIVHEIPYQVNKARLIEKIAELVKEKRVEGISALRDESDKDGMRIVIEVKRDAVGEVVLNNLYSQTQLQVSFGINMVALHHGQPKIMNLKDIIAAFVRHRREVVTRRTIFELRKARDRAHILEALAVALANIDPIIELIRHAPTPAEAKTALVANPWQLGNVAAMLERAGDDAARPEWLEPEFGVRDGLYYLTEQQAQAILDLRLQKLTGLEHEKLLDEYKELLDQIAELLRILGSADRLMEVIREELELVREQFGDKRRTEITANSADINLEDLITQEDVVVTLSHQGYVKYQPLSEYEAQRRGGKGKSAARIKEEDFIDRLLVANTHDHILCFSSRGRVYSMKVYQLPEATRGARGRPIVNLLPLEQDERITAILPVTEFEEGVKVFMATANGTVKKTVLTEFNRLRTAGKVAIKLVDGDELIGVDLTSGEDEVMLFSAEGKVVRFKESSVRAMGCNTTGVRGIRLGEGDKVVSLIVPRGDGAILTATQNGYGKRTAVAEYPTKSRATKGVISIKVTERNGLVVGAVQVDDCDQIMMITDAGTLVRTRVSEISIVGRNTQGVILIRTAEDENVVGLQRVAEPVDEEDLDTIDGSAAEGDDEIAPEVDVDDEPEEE

With O=C(O)c1cn(C2CC2)c2cc(N3CCNCC3)c(F)cc2c1=O [CFX, ciprofloxacin, reference compound] the “Activity against DNA gyrase” value (E. coli DNA gyrase) was “inhibited”, the “Inhibition of topoisomerase IV” value (E. coli topoisomerase IV) was “inhibited” and the “Effect on cell number (OD600) in SOS reporter assay” value ([1]; JE2 recA-GFP reporter with CFX (10 µM)) was “decrease in cell number at low micromolar concentrations”. The “SOS response (normalized GFP fluorescence/cell)” value [1] was “increase in normalized GFP fluorescence/cell; also recorded: SOS activation increased”.

In the case of O=C(O)c1cn(C2CC2)c2cc(N3CCN(C(=O)Nc4ccccc4)CC3)c(F)cc2c1=O [Compound 21], the “Pulldown of AddA and AddB by compound-functionalized Sepharose” value [2] is reported as “no interaction; also recorded: did not; also recorded: does not pulldown”, the “SOS response (normalized GFP fluorescence/cell)” value [1] is reported as “did not inhibit the SOS response; also recorded: SOS activation increased” and the “fold weaker potentiation of CFX in MRSA growth assays” value [3] is reported as about 100 fold.
